Experimental data from patent US12612427B2, “Aryl glucoside derivative, preparation method therefor and application thereof” (Shanghai Zheye Biotechnology Co. Ltd., priority 2020, dated 2026).
Values joined by “and” are separate entries in the source; they are usually repeats but may differ in a detail not shown here. Identical values can stand only once.

Assays:
[1] = Lipid solubility and water solubility; assay type: physicochemical; settings: compared with the compound of Example 5
[2] = target: T1, human SGLT1 (Homo sapiens, UniProt P13866); test: hSGLT1 inhibitor activity experiment 2: 2-NBDG uptake by HEK293 cells stably expressing human SGLT1; assay type: cell-based; settings: for IC50: 2-NBDG uptake, HEK293 stably expressing human SGLT1, read-out: SGLT1 Inhibitory Activity
T1 construct: expressed in transfected cells
T1 sequence (P13866 1-664): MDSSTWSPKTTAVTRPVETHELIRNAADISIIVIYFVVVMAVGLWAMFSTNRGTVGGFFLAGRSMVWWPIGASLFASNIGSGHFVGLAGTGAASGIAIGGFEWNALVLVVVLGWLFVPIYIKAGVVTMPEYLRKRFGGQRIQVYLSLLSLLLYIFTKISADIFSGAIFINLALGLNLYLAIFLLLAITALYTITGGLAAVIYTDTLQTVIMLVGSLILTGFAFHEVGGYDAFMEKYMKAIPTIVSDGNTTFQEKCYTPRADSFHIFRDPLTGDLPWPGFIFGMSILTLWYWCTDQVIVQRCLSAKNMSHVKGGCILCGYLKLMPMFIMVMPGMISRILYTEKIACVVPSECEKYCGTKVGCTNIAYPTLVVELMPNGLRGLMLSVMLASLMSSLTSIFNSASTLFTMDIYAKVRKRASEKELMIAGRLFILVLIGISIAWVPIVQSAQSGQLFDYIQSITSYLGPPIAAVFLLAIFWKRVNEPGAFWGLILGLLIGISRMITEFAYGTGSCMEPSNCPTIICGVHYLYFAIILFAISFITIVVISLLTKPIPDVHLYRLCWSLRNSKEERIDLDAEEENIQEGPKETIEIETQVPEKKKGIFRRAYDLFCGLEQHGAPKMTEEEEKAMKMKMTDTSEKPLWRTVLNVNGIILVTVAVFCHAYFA
Method: Inhibitory activity testing was performed with reference to a similar method described in document [Acta Pharmaceutica Sinica 2017, 52 (6): 897-903; Nature Protocols (2007), 2(3), 753-762; Journal of Biochemical and Biophysical Methods (2005), 64(3), 207-215; Diabetes Technology & Therapeutics (2011), 13(7), 743-775].
In this experiment, the in vitro activity assay was evaluated using the uptake of 2-NBDG (2-Deoxy-2-[(7-nitro-2,1,3-benzoxadiazol-4-yl)amino]-D-glucose, CAS NO: 186689-07-6) by human embryonic kidney epithelial cells (HEK293, stably expressing human SGLT1), and the SGLT1 inhibitory activity of the target compound was determined by measuring its half-maximal inhibitory concentration (IC50).
HEK293 cells that can stably express human SGLT1 gene were inoculated into a 96-well clear-bottom black plate containing DMEM medium. The cells were incubated at 37° C., 5% CO2 in a cell incubator. The medium in the 96-well plate was aspirated, and the plate was treated with low-glucose serum-free DMEM medium, and washed once with non-specific uptake buffer and once with Na^+-dependent uptake buffer. Uptake buffer containing test compound was added to each well of cells, followed by uptake buffer containing 2-NBDG for glucose uptake, and the cell plate was incubated at 37° C., 5% CO2. The compounds were gradiently diluted. The uptake reaction was stopped by removing the culture medium, and after washing the cells with ice-cold uptake buffer, the washing solution was removed. The cells were lysed by adding NaOH, and the content of 2-NBDG in the cells was detected by a fluorescence microplate reader. The protein concentration of the lysate was measured by BCA method, the uptake of 2-NBDG was quantified by fluorescence intensity/protein content, and the obtained data were analyzed using GraphPad Prism to determine the median inhibitory concentration (IC50) of the compound to be tested.

[3] = system: SD rats; test: Oral glucose tolerance test (OGTT) after continuous administration in rats for 14 days; assay type: in vivo, rat; settings: for blood sugar level of rats (OGTT): 0.009 mg/kg oral gavage, 14 days, OGTT on day 15; for loose stools in the experimental animals: rats, within 48 hours before and after the experiment
Method: • Experimental animals: SPF male SD rats; • Compound preparation: an appropriate amount of the compounds of Example 1, Example 2, Example 9, Example 10, and Example 17 were weighed, and uniformly suspended with an appropriate amount of 0.5% CMC-Na solution; • Preparation of glucose solution: an appropriate amount of glucose powder was weighed and dissolved with an appropriate amount of pure water; • Dosage and method of administration: 0.009 mg/kg, oral gavage.
Experimental process: the animals were fed a normal diet with consecutive administration for 14 days, and the glucose tolerance test was performed on day 15, blood glucose was detected before administration (−30 min), before giving glucose (0 min), and 10, 30, 60, and 120 min after giving glucose solution, and the defecation of animals was observed.

[4] = Pharmacokinetic study in rats; assay type: in vivo, rat; settings: 10 mg/kg, oral gavage, 0-24 hours
Method: 5. Pharmacokinetic Study in Rats • Experimental animals: SPF male SD rats; • Dosage and method of administration: 10 mg/kg, oral gavage. • Research compound: Dapagliflozin, the compound of Example 9, the compound of Example 10, the compound of Example 17, and the comparative compound 6;
Test method: Before administration (0), and 1, 4, 8, and 24 hours after administration, 0.2 ml of blood was collected from orbital venous plexus, anticoagulated with heparin, plasma was collected, and the blood drug concentration was determined.

[5] = system: SD mice; test: Oral glucose tolerance test (OGTT) after consecutive administration in mice; assay type: in vivo, mouse; settings: for Statistics of loose stools in animals / loose stools (in words): mice
Method: • Experimental animals: SPF male SD mice; • Compound preparation: an appropriate amount of the compound of Example 10 was weighed, and uniformly suspended with an appropriate amount of 0.5% CMC-Na solution; • Preparation of glucose solution: an appropriate amount of glucose powder was weighed and dissolved with an appropriate amount of pure water; • Administration and dosage: oral gavage; blank vehicle group, high-dose group (1.5 mg/kg), low-dose group (0.1 mg/kg). Experimental Process: • (1) The mice were fed a high-sugar diet for 6 days, and then grouped (10 mice in each group) to enter the administration stage; • (2) Example compound 10 was administered at 5:00 pm every day from day 1 to day 5, once a day, and then the animals were fed a high-sugar free diet, and the defecation of the animals was observed. • (3) On day 6, oral glucose tolerance test was performed, and glucose solution (2 g/kg) was orally administered. Blood glucose was detected before (0 min) and 10, 30, and 60 min after giving glucose solution, respectively. Experimental Results: • (1) From day 1 to day 5, the observation of animal defecation after continuous administration is summarized as follows: […]

[6] = system: type 2 diabetes mouse model; test: In vivo hypoglycemic efficacy experiment combined with sitagliptin; settings: 0.01, 0.05, 0.1 mg/kg combined with 20 mg/kg of sitagliptin, STZ and high-fat high-sugar diet mice
Method: Model establishment: SPF grade Balb/C male mice were used in this experiment, and the establishment of the type 2 diabetes mouse model was induced by intraperitoneal injection of streptozotocin (STZ) supplemented by high-fat and high-sugar diet. • Group: 10 per group
Administration: normal group, model group, low-dose combined administration group (0.01 mg/kg of the compound of Example 10+20 mg/kg of sitagliptin), medium-dose combined administration group (0.05 mg/kg of the compound of Example 10+20 mg/kg of sitagliptin), high-dose combined administration group (0.1 mg/kg of the compound of Example 10+20 mg/kg of sitagliptin), sitagliptin group (20 mg/kg). The normal group and the model group were given the solvent by gavage.

[7] = system: microorganisms in rat feces; test: Intestinal microbial metabolic stability in rat feces suspension; assay type: in vitro ADME; settings: for Percentage of remaining compound: rat feces suspension, 37° C.
Method: Methods: The collected rat feces were processed, and the feces suspension was obtained for the determination of metabolic stability. The mixed reaction system consisting of the rat feces suspension and the compound of […] was incubated at 37° C. for 3 h, 6 h, 12 h and 24 h. The compound of Example 10 in the incubation system was analyzed to determine the total amount of remaining compound. Wherein, “+” represents the remaining percentage being: <50%; “++” represents the remaining percentage being: 50% to 70%; “+++” represents the remaining percentage being: 70% to 90%; “++++” means the remaining percentage being: >90%.

SMILES	activity of inhibiting SGLT1 (in words) [2]	IC50 [2] [nM]	drug concentration in plasma [4]	blood sugar level of rats (OGTT) [3]	loose stools in the experimental animals [3]	other results
CS[C@H]1O[C@@H](c2ccc(C)c(Cc3ccc(CCCC(=O)NC(C)(C)C(=O)NCCN(C)CC(=O)N(C)Cc4cn(C5CC5)nn4)cc3)c2)[C@H](O)[C@@H](O)[C@@H]1O	–	–	–	–	–	lipid solubility [1]: better; water solubility [1]: better
CS[C@H]1O[C@@H](c2ccc(C)c(Cc3ccc(CCCC(=O)NC(C)(C)C(=O)NCCN(C)CC(=O)N4CCN(C)CC4)cc3)c2)[C@H](O)[C@@H](O)[C@@H]1O [Example 3]	significant activity of inhibiting SGLT1	0.93	–	–	–	–
C#CCN(CCNC(=O)C(C)(C)NC(=O)CCCc1ccc(Cc2cc([C@@H]3O[C@H](SC)[C@@H](O)[C@H](O)[C@H]3O)ccc2C)cc1)CC(=O)N1CCCC1 [Example 9]	significant activity of inhibiting SGLT1	0.53	did not reach the detection limit	significantly reduce the blood sugar level	no loose stools were observed	–
C#CCN(C)C(=O)CN(C)CCNC(=O)C(C)(C)NC(=O)CCCc1ccc(Cc2cc([C@@H]3O[C@H](SC)[C@@H](O)[C@H](O)[C@H]3O)ccc2C)cc1 [Example 10]	significant activity of inhibiting SGLT1	0.37	did not reach the detection limit	significantly reduce the blood sugar level	no loose stools were observed	blood glucose level of mice (OGTT) ([5]; day 6, high (1.5 mg/kg) and low (0.1 mg/kg) dose groups, glucose 2 g/kg): significantly reduce the blood glucose level; Statistics of loose stools in animals ([5]; high-dose group (1.5 mg/kg), Day 1): only one animal had loose stools and 1/10; Statistics of loose stools in animals ([5]; high-dose group (1.5 mg/kg), Day 2): 0/10; Statistics of loose stools in animals ([5]; high-dose group (1.5 mg/kg), Day 3): 0/10; Statistics of loose stools in animals ([5]; high-dose group (1.5 mg/kg), Day 4): 0/10; Statistics of loose stools in animals ([5]; high-dose group (1.5 mg/kg), Day 5): 0/10; loose stools (in words) ([5]; high-dose group (1.5 mg/kg), day 2 to day 5): did not have loose stools; Statistics of loose stools in animals ([5]; low-dose group (0.1 mg/kg), Day 1): 0/10; Statistics of loose stools in animals ([5]; low-dose group (0.1 mg/kg), Day 2): 0/10; Statistics of loose stools in animals ([5]; low-dose group (0.1 mg/kg), Day 3): 0/10; Statistics of loose stools in animals ([5]; low-dose group (0.1 mg/kg), Day 4): 0/10; Statistics of loose stools in animals ([5]; low-dose group (0.1 mg/kg), Day 5): 0/10; loose stools (in words) ([5]; low-dose group (0.1 mg/kg), continuous administration for 5 days): did not have loose stools; blood glucose level of diabetic model animals [6]: significantly reduce the blood glucose level; remaining compound ([7]; incubated with microorganisms in rat feces for about 24 hours): > 70%; Percentage of remaining compound ([7]; incubation 3 h): ++++ (“++++” means the remaining percentage being: >90%); Percentage of remaining compound ([7]; incubation 6 h): +++ (“+++” represents the remaining percentage being: 70% to 90%); Percentage of remaining compound ([7]; incubation 12 h): +++ (“+++” represents the remaining percentage being: 70% to 90%); Percentage of remaining compound ([7]; incubation 24 h): +++ (“+++” represents the remaining percentage being: 70% to 90%)
C#CCN(C)C(=O)CN1CCN(C(=O)C(C)(C)NC(=O)CCCc2ccc(Cc3cc([C@@H]4O[C@H](SC)[C@@H](O)[C@H](O)[C@H]4O)ccc3C)cc2)CC1 [Example 17]	significant activity of inhibiting SGLT1	0.49	did not reach the detection limit	significantly reduce the blood sugar level	no loose stools were observed	–

Further molecules by falling IC50 [2], results first:

activity of inhibiting SGLT1 (in words) [2]	IC50 [2] [nM]	drug concentration in plasma [4]	SMILES	blood sugar level of rats (OGTT) [3]	loose stools in the experimental animals [3]	other results
significant activity of inhibiting SGLT1	1.12	–	CS[C@H]1O[C@@H](c2ccc(C)c(Cc3ccc(CCCC(=O)NC(C)(C)C(=O)NCCN(C)CC(=O)N(C)C)cc3)c2)[C@H](O)[C@@H](O)[C@@H]1O [Example 2]	significantly reduce the blood sugar level	no loose stools were observed	–
significant activity of inhibiting SGLT1	0.87	–	CS[C@H]1O[C@@H](c2ccc(C)c(Cc3ccc(CCCC(=O)NC(C)(C)C(=O)N4CCN(CC(=O)N5CCCC5)CC4)cc3)c2)[C@H](O)[C@@H](O)[C@@H]1O [Example 4]	–	–	–
significant activity of inhibiting SGLT1	0.78	–	CS[C@H]1O[C@@H](c2ccc(C)c(Cc3ccc(CCCC(=O)NC(C)(C)C(=O)NCCN(C)CC(=O)N4CCCC4)cc3)c2)[C@H](O)[C@@H](O)[C@@H]1O [Example 1]	significantly reduce the blood sugar level	no loose stools were observed	–
